Results: EPA's ToxValDB 9.5
Several values for one entry are separate records, joined by “and”; a condition that tells them apart may be missing. Equal entries are not always repeated.

Test system: Rattus norvegicus
[1] = short-term, duration: 2 weeks, inhalation, F, Wistar, generation: P0, P0: Lung: Lung Weight, Relative
[2] = short-term, duration: 2 weeks, inhalation, M, Wistar, generation: P0, P0: Lung: Lung Weight, Relative
[3] = short-term, duration: 28 days, inhalation, F, Wistar, Teeth: Incisors, Discolored
[4] = short-term, duration: 28 days, inhalation, M, Wistar, Teeth: Incisors, Discolored
[5] = short-term, duration: 28 days, oral, gavage, F, Wistar, Blood: Red Cell Distribution Width (RDW) + Liver: Total Cholesterol (CHOL)
[6] = short-term, duration: 28 days, oral, gavage, M, Wistar, Blood: Hemoglobin (HGB) + Liver: Total Bilirubin (TBILI)
[7] = developmental, duration: 24 days, oral, gavage, M/F, Sprague-Dawley, generation: F1, F1: Whole Body: Pup Weight per Litter, PND1
[8] = reproduction developmental, duration: 24 days, oral, gavage, F, Sprague-Dawley, generation: P0, P0: Whole Body: Clinical Signs
[9] = reproduction developmental, duration: 24 days, oral, gavage, F, Sprague-Dawley, generation: P0, P0: Whole Body: Feed Consumption, Absolute + P0: Whole Body: Maternal Body Weight Change + P0: Whole Body: Mortality + P0: Whole Body: No. …
[10] = short-term, duration: 28 days, oral, gavage, F, Wistar, Adrenal: Adrenal Gland Weight, Absolute + Adrenal: Adrenal Gland Weight, Relative + Kidney: Creatinine (CREAT) + Multi-Organ: Calcium (CA)
[11] = short-term, duration: 28 days, oral, gavage, M, Wistar, Blood: Hematocrit (HCT) + Blood: Hemoglobin (HGB) + Kidney: Urea + Liver: Alkaline Phosphatase (ALP) + Liver: Liver, Enlarged + Multi-Organ…
[12] = short-term, duration: 28 days, oral, gavage, M, Wistar, Liver: Liver Weight, Absolute + Multi-Organ: Glucose (GLU) + Multi-Organ: Potassium (K)
[13] = subchronic, duration: 90 days, oral, gavage, F, Sprague-Dawley, Kidney: Calcium (CA) Excretion + Multi-Organ: White Blood Cell (WBC)
[14] = subchronic, duration: 90 days, oral, gavage, M, Sprague-Dawley, Blood: Hematocrit (HCT) + Blood: Hemoglobin (HGB)
[15] = subchronic, duration: 90 days, oral, gavage, M, Sprague-Dawley, Blood: Red Blood Cell (RBC) + Liver: Aspartate Aminotransferase (AST) + Multi-Organ: Prothrombin Time (PT)
[16] = reproduction developmental, oral, gavage, F, Crl:CD(SD), generation: P0, P0: Endocrine: Adrenal: Adrenal Gland Histopathology + P0: Endocrine: Adrenal: Adrenal Gland Weight, Absolute + P0: Endocrine: Adrenal: …
[17] = reproduction developmental, oral, gavage, F, Crl:CD(SD), generation: P0, P0: Hematologic: Multi-Organ: Activated Partial Thromboplastin Time (APTT) + P0: Hematologic: Multi-Organ: Hematocrit (HCT) + P0: …
[18] = reproduction developmental, oral, gavage, M, Crl:CD(SD), generation: P0, P0: Endocrine: Adrenal: Adrenal Gland Histopathology + P0: Endocrine: Adrenal: Adrenal Gland Weight, Absolute + P0: Endocrine: Adrenal: …
[19] = reproduction developmental, oral, gavage, M, Crl:CD(SD), generation: P0, P0: Hematologic: Multi-Organ: Activated Partial Thromboplastin Time (APTT) + P0: Hematologic: Multi-Organ: Hematocrit (HCT) + P0: …
[20] = short-term, duration: 10 days, oral, gavage, M, Sprague-Dawley, Endocrine: Multi-Organ: Follicle Stimulating Hormone (FSH), Serum + Endocrine: Multi-Organ: Leuteinizing Hormone (LH), Serum + Endocrine: …
[21] = short-term, duration: 10 days, oral, gavage, M, Sprague-Dawley, Endocrine: Multi-Organ: Testosterone (T), Serum + Reproductive: Epididymis: Epididymis Weight, Absolute + Reproductive: Epididymis: …

## F/C(=C(/F)C(F)(C(F)(F)F)C(F)(F)F)C(F)(F)F [(E)-Perfluoro(4-methyl-2-pentene)]
acute, duration: 4 hours, inhalation, F, Wistar, Central Nervous System: Hunched Posture + Central Nervous System: Ruffled Fur + Lung: Lung, Non-Neoplastic Lesions + Lung: Tachypnea + Whole…
  LOAEL: 21.7 mg/L
acute, duration: 4 hours, inhalation, M, Wistar, Central Nervous System: Frightened behavior + Central Nervous System: Ruffled Fur + Central Nervous System: Tremor + Lung: Lung, Non-…
  LOAEL: 21.7 mg/L
developmental, duration: 2 weeks, inhalation, M/F, Wistar, generation: F1, F1: Whole Body: Clinical Signs + F1: Whole Body: Fetal Alterations, Total + F1: Whole Body: Male Pups per Pups Sexed + F1: Whole Body: Pup …
  NOAEL: 4290 mg/m3 and 4300 mg/m3
Reproduction developmental, duration: 2 weeks, inhalation, F, Wistar, generation: P0, P0: Ovary: Corpora Lutea + P0: Uterus: Implantation + P0: Whole Body: Dams with Stillborn Pups + P0: Whole Body: Days of Cohabitation + P0: …
  NOAEL: 4290 mg/m3 and 4300 mg/m3
Reproduction developmental, duration: 2 weeks, inhalation, M, Wistar, generation: P0, P0: Whole Body: Days of Cohabitation + P0: Whole Body: Fertility Index + P0: Whole Body: Percent Mating
  NOAEL: 4290 mg/m3 and 4300 mg/m3
short-term, duration: 2 weeks, inhalation, F, Wistar, generation: P0, P0: Kidney: Kidney, Faded + P0: Liver: Liver Weight, Absolute + P0: Liver: Liver Weight, Relative + P0: Lung: Lung Weight, Absolute + P0: …
  NOAEL: 4290 mg/m3 and 4300 mg/m3
short-term, duration: 2 weeks, inhalation, F, Wistar, generation: P0, P0: Kidney: Kidney, Faded + P0: Thymus: Thymus, Small + P0: Whole Body: Body Weight Change + P0: Whole Body: Body Weight, Absolute + P0: …
  LOAEL: 9200 mg/m3
[1]
  LOAEL: 4290 mg/m3 and 4300 mg/m3
  NOAEL: 1840 mg/m3
short-term, duration: 2 weeks, inhalation, M, Wistar, generation: P0, P0: Epididymis: Epididymis Weight, Absolute + P0: Epididymis: Epididymis Weight, Relative + P0: Epididymis: Epididymis, Duct, Exfoliated …
  NOAEL: 4290 mg/m3 and 4300 mg/m3
short-term, duration: 2 weeks, inhalation, M, Wistar, generation: P0, P0: Epididymis: Epididymis, Small + P0: Kidney: Kidney, Faded + P0: Prostate: Prostate, Small + P0: Seminal Vesicle: Seminal Vesicle, Small…
  LOAEL: 9200 mg/m3
[2]
  LOAEL: 4290 mg/m3 and 4300 mg/m3
  NOAEL: 1840 mg/m3
short-term, duration: 2 weeks, inhalation, M, Wistar, generation: P0, P0: Whole Body: Feed Consumption, Absolute
  NOAEL: 9200 mg/m3
short-term, duration: 28 days, inhalation, F, Wistar, Adrenal: Adrenal Gland Weight, Absolute + Blood: Albumin/Globulin (A/G) Ratio + Blood: Hemoglobin (HGB) + Blood: Mean Cell Volume (MCV) + …
  NOAEL: 3070 mg/m3
[3]
  LOAEL: 3070 mg/m3
  NOAEL: 1230 mg/m3 and 1220 mg/m3
short-term, duration: 28 days, inhalation, M, Wistar, Adrenal: Adrenal Gland Weight, Absolute + Blood: Albumin/Globulin (A/G) Ratio + Blood: Hemoglobin (HGB) + Blood: Mean Cell Volume (MCV) + …
  NOAEL: 3070 mg/m3
[4]
  LOAEL: 3070 mg/m3
  NOAEL: 1230 mg/m3 and 1220 mg/m3
short-term, duration: 28 days, oral, gavage, F, Wistar, Adrenal: Adrenal Gland Histopathology + Blood: Mean Cell Hemoglobin (MCH) + Blood: Platelet Count (PLT) + Bone: Femur Histopathology + Bone…
  NOAEL: 450 mg/kg-day
short-term, duration: 28 days, oral, gavage, F, Wistar, Blood: Hematocrit (HCT) + Blood: Hemoglobin (HGB), Recovery + Blood: Mean Cell Volume (MCV) + Blood: Red Blood Cell (RBC) + Calcium (CA) + …
  LOAEL: 450 mg/kg-day
short-term, duration: 28 days, oral, gavage, F, Wistar, Blood: Hematocrit (HCT) + Blood: Mean Cell Volume (MCV) + Blood: Red Blood Cell (RBC) + Calcium (CA) + Chloride (CL) + Gamma-glutamyl …
  NOAEL: 150 mg/kg-day
short-term, duration: 28 days, oral, gavage, F, Wistar, Blood: Hemoglobin (HGB) + Blood: Mean Cell Hemoglobin Concentration (MCHC) + Liver: Liver Weight, Absolute + Spleen: Spleen Weight, Absolute
  LOAEL: 50 mg/kg-day
[5]
  LOAEL: 150 mg/kg-day
  NOAEL: 50 mg/kg-day
short-term, duration: 28 days, oral, gavage, M, Wistar, Adrenal: Adrenal Gland Histopathology + Bone: Femur Histopathology + Bone: Sternum Histopathology + Brain: Brain Weight, Absolute, Recovery…
  NOAEL: 450 mg/kg-day
short-term, duration: 28 days, oral, gavage, M, Wistar, Blood: Hematocrit (HCT) + Blood: Mean Cell Hemoglobin Concentration (MCHC), Recovery + Blood: Mean Cell Volume (MCV) + Blood: Platelet Count…
  LOAEL: 450 mg/kg-day
short-term, duration: 28 days, oral, gavage, M, Wistar, Blood: Hematocrit (HCT) + Blood: Mean Cell Volume (MCV) + Blood: Platelet Count (PLT) + Blood: Red Blood Cell (RBC) + Blood: Red Cell …
  NOAEL: 150 mg/kg-day
[6]
  LOAEL: 150 mg/kg-day
  NOAEL: 50 mg/kg-day
short-term, duration: 28 days, oral, gavage, M, Wistar, Blood: Mean Cell Hemoglobin (MCH) + Blood: Mean Cell Hemoglobin Concentration (MCHC) + Brain: Brain Weight, Absolute + Testis: Testis Weight…
  LOAEL: 50 mg/kg-day

## O=C([O-])C(F)(F)C(F)OC(F)(F)C(F)(F)C(F)(F)OC(F)(F)F.[NH4+] (configuration not stated) [Ammonium 4,8-dioxa-3H-perfluorononanoate]
developmental, duration: 24 days, oral, gavage, M/F, Sprague-Dawley, generation: F1, F1: Whole Body: Dams with Stillborn Pups + F1: Whole Body: Delivered Litters + F1: Whole Body: Live Pups Born + F1: Whole Body: Mean Pups …
  NOAEL: 270 mg/kg-day
developmental, duration: 24 days, oral, gavage, M/F, Sprague-Dawley, generation: F1, F1: Whole Body: No Milk in Stomach + F1: Whole Body: Pup Weight per Litter, PND4 + F1: Whole Body: Pup Weight per Litter, PND6 + F1: Whole …
  LOAEL: 270 mg/kg-day
[7]
  LOAEL: 90 mg/kg-day
  NOAEL: 30 mg/kg-day
developmental, duration: 24 days, oral, gavage, M/F, Sprague-Dawley, generation: F1, F1: Whole Body: Pup Weight per Litter, PND4 + F1: Whole Body: Pup Weight per Litter, PND6 + F1: Whole Body: Survival, PND1 + F1: Whole Body…
  NOAEL: 90 mg/kg-day
Reproduction developmental, duration: 24 days, oral, gavage, F, Sprague-Dawley, generation: P0, P0: Uterus: Resorptions, Early + P0: Whole Body: Feed Consumption, Absolute + P0: Whole Body: Length of Gestation + P0: Whole Body: Length …
  NOAEL: 270 mg/kg-day
[8]
  LOAEL: 90 mg/kg-day
  NOAEL: 30 mg/kg-day
[9]
  LOAEL: 270 mg/kg-day
  NOAEL: 90 mg/kg-day
[10]
  LOAEL: 100 mg/kg-day
  NOAEL: 30 mg/kg-day
short-term, duration: 28 days, oral, gavage, F, Wistar, Blood: Activated Partial Thromboplastin Time (APTT) + Blood: Albumin/Globulin (A/G) Ratio + Blood: Hematocrit (HCT) + Blood: Hemoglobin (HGB…
  NOAEL: 100 mg/kg-day
short-term, duration: 28 days, oral, gavage, M, Wistar, Adrenal: Adrenal Gland Weight, Absolute + Adrenal: Adrenal Gland Weight, Relative + Blood: Activated Partial Thromboplastin Time (APTT) + …
  NOAEL: 100 mg/kg-day
[11]
  LOAEL: 100 mg/kg-day
  NOAEL: 30 mg/kg-day
short-term, duration: 28 days, oral, gavage, M, Wistar, Liver: Hepatocellular Hypertrophy + Liver: Liver Weight, Relative + Liver: Total Bilirubin (TBILI)
  LOAEL: 10 mg/kg-day
[12]
  LOAEL: 30 mg/kg-day
  NOAEL: 10 mg/kg-day
subchronic, duration: 90 days, oral, gavage, F, Sprague-Dawley, Adrenal: Adrenal Gland Weight, Absolute + Adrenal: Adrenal Gland Weight, Relative + Blood: Activated Partial Thromboplastin Time (APTT) + …
  NOAEL: 100 mg/kg-day
[13]
  LOAEL: 100 mg/kg-day
  NOAEL: 30 mg/kg-day
subchronic, duration: 90 days, oral, gavage, M, Sprague-Dawley, Adrenal: Adrenal Gland Weight, Absolute + Adrenal: Adrenal Gland Weight, Relative + Blood: Activated Partial Thromboplastin Time (APTT) + …
  NOAEL: 10 mg/kg-day
[14]
  LOAEL: 3 mg/kg-day
  NOAEL: 1 mg/kg-day
[15]
  LOAEL: 10 mg/kg-day
  NOAEL: 3 mg/kg-day

## O=C(O)C(F)(F)C(F)(F)C(F)(F)C(F)(F)C(F)(F)C(F)(F)C(F)(F)C(F)(F)C(F)(F)C(F)(F)C(F)(F)C(F)(F)C(F)(F)F [Perfluorotetradecanoic acid]
developmental, oral, gavage, F, Crl:CD(SD), generation: F1, F1: Developmental: Whole Body: Body Weight, Birth + F1: Developmental: Whole Body: Body Weight, Pup, PND 1 + F1: Developmental: Whole Body: …
  NOAEL: 1 mg/kg-day and 3 mg/kg-day
developmental, oral, gavage, M/F, Crl:CD(SD), generation: F1, F1: Developmental: Whole Body: Litter Size + F1: Developmental: Whole Body: Male Pups per Pups Sexed + F1: Developmental: Whole Body: Mean …
  NOAEL: 1 mg/kg-day and 3 mg/kg-day
developmental, oral, gavage, M, Crl:CD(SD), generation: F1, F1: Developmental: Whole Body: Body Weight, Birth + F1: Developmental: Whole Body: Body Weight, Pup, PND1 + F1: Developmental: Whole Body: …
  NOAEL: 1 mg/kg-day and 3 mg/kg-day
Reproduction developmental, oral, gavage, F, Crl:CD(SD), generation: P0, P0: Cardiovascular: Heart: Heart Histopathology + P0: Cardiovascular: Heart: Heart Weight, Absolute + P0: Cardiovascular: Heart: Heart …
  LOAEL: 3 mg/kg-day
[16]
  LOAEL: 3 mg/kg-day
  NOAEL: 1 mg/kg-day
[17]
  LOAEL: 10 mg/kg-day
  NOAEL: 3 mg/kg-day
Reproduction developmental, oral, gavage, M, Crl:CD(SD), generation: P0, P0: Cardiovascular: Heart: Heart Histopathology + P0: Cardiovascular: Heart: Heart Weight, Absolute + P0: Cardiovascular: Heart: Heart …
  LOAEL: 3 mg/kg-day
[18]
  LOAEL: 3 mg/kg-day
  NOAEL: 1 mg/kg-day
[19]
  LOAEL: 10 mg/kg-day
  NOAEL: 3 mg/kg-day
[20]
  LOAEL: 20 mg/kg-day
  NOAEL: 10 mg/kg-day
short-term, duration: 10 days, oral, gavage, M, Sprague-Dawley, Endocrine: Multi-Organ: Follicle Stimulating Hormone (FSH), Serum + Endocrine: Multi-Organ: Leuteinizing Hormone (LH), Serum + Whole Body: …
  NOAEL: 20 mg/kg-day
[21]
  LOAEL: 20 mg/kg-day
  NOAEL: 10 mg/kg-day
